The first data set deals with guinea pigs. In words: Infiltration anesthetic effects, intracutaneous injection in guinea pigs. It is filed as in vivo. Particulars: 0.2 ml of 0.5% by weight solution. How it is done:
1. […] A. Infiltration anesthetic effects: The effects of the new compounds were tested according to Aberg & […], Acta Anaesth.
Take `Cc1ccc(C)c(OCC2CCCCN2C)c1` (stereo not shown) [Example 9]: the Infiltration anesthesia duration turned out to be 25 min.
On to `CC1CCCC(C)C1OCC1CCCCN1C` (stereo not shown) [Example 4], for which the Infiltration anesthesia duration worked out at 60 min.
On to `Cc1ccc(OCC2CCCCN2C)c(C)c1` (stereo not shown) [Example 8], for which the Infiltration anesthesia duration turned out to be 35 min.
The same measure, in the same setting: for `CCN(CC)CC(=O)Nc1c(C)cccc1C` [Lidocaine, reference compound] the value was 25 min.
As for `Cc1cccc(C)c1OCC1CCCCN1C.Cl` (stereo not shown) [Example 2, N-methyl-2-[(2,6-xyloxy)methyl]-piperidine hydrochloride], the Infiltration anesthesia duration is given as 120 min.
In turn, `Cc1cccc(C)c1OCC1CCCCN1CCO` (stereo not shown) [Example 12] showed an Infiltration anesthesia duration of 40 min.
In turn, `CCCCN1CCCCC1COc1c(C)cccc1C` (stereo not shown) [Example 7, N-(n-butyl)-2-[(2,6-xyloxy)methyl]piperidine] gave an Infiltration anesthesia duration of 165 min.

The next data set concerns sciatic nerve. In words: Nerve blocking effects in rats in vivo. Particulars: 0.25 ml of 0.5% by weight solution. How it is done:
B. Nerve blocking effects. The tests were carried out in vivo in rats after injection of 0.25 ml of the test solutions close to the sciatic nerve.
For the molecule `Cc1ccc(C)c(OCC2CCCCN2C)c1` (stereo not shown) [Example 9], the “Nerve blocking effect, Motoric blockade” value stood at 75 min and the “Nerve blocking effect, Sensoric blockade” value was found to be 95 min.
On to `CC1CCCC(C)C1OCC1CCCCN1C` (stereo not shown) [Example 4], for which the “Nerve blocking effect, Motoric blockade” value was found to be 65 min and the “Nerve blocking effect, Sensoric blockade” value turned out to be 80 min.
With `Cc1ccc(OCC2CCCCN2C)c(C)c1` (stereo not shown) [Example 8], the “Nerve blocking effect, Motoric blockade” value is on record as 55 min and the “Nerve blocking effect, Sensoric blockade” value is given as 75 min.
Consider `CCN(CC)CC(=O)Nc1c(C)cccc1C` [Lidocaine, reference compound], for which the “Nerve blocking effect, Motoric blockade” value is listed as 40 min and the “Nerve blocking effect, Sensoric blockade” value was 35 min.
As for `Cc1cccc(C)c1OCC1CCCCN1C.Cl` (stereo not shown) [Example 2, N-methyl-2-[(2,6-xyloxy)methyl]-piperidine hydrochloride], the “Nerve blocking effect, Motoric blockade” value amounted to 110 min and the “Nerve blocking effect, Sensoric blockade” value is reported as 135 min.
As to `Cc1cccc(C)c1OCC1CCCCN1CCO` (stereo not shown) [Example 12], the “Nerve blocking effect, Motoric blockade” value is recorded as 95 min and the “Nerve blocking effect, Sensoric blockade” value was determined as 95 min.
Take `CCCCN1CCCCC1COc1c(C)cccc1C` (stereo not shown) [Example 7, N-(n-butyl)-2-[(2,6-xyloxy)methyl]piperidine]: the “Nerve blocking effect, Motoric blockade” value worked out at 140 min and the “Nerve blocking effect, Sensoric blockade” value stood at 160 min.

The test system of another data set is rabbit cornea. Description: Topical anesthetic effects, corneal test in rabbits in vivo. The note with it: 0.25 ml, concentration 1.0%. How it is done:
C. Topical anesthetic effects. Corneal tests were carried out in rabbits in vivo according to Henn.
As for `Cc1cccc(C)c1OCC1CCCCN1C.Cl` (stereo not shown) [Example 2, N-methyl-2-[(2,6-xyloxy)methyl]-piperidine hydrochloride], the “Topical anesthetic effect, Duration” value was found to be 14 ± 4 min and the “Topical anesthetic effect, Onset frequency” value is listed as 7/10.
In the case of `CCCCN1CCCCC1COc1c(C)cccc1C` (stereo not shown) [Example 7, N-(n-butyl)-2-[(2,6-xyloxy)methyl]piperidine], the “Topical anesthetic effect, Duration” value is on record as 27 ± 4 min and the “Topical anesthetic effect, Onset frequency” value was 10/10.

The data set is the same for the next values; noted with them: 0.25 ml, concentration 4.0%.
Consider `CCN(CC)CC(=O)Nc1c(C)cccc1C` [Lidocaine, reference compound], for which the “Topical anesthetic effect, Duration” value was determined as 23 ± 3 min and the “Topical anesthetic effect, Onset frequency” value is recorded as 10/10.

Test system in another data set: not listed separately
In words: Convulsive and lethal doses in rats, intravenous infusion. Type of data set: in vivo. Particulars: rat, in vivo, iv; male rats, i.v. at 1.0 mg/kg/min; read-out: Convulsive dose. Here is the method: (§1) Convulsive doses and lethal doses after intravenous administration for selected compounds of the invention and for Bupivacaine are shown in Table 3 below.
(§2) Convulsive and lethal doses of selected compounds
(§3) administered intravenously at 1.0 mg/kg/min to rats (male;
On to `Cc1cccc(C)c1OCC1CCCCN1C.Cl` (stereo not shown) [Example 2, N-methyl-2-[(2,6-xyloxy)methyl]-piperidine hydrochloride], for which the TD50 is 10 mg/kg.
In the case of `CCCCN1CCCCC1COc1c(C)cccc1C` (stereo not shown) [Example 7, N-(n-butyl)-2-[(2,6-xyloxy)methyl]piperidine], the TD50 was determined as 16 mg/kg.

A further data set has as its system rats. The description is as above. It is filed as in vivo. The note with it: male rats, i.v. at 1.0 mg/kg/min. How it is done: as §1, §2, §3
On to `Cc1cccc(C)c1OCC1CCCCN1C.Cl` (stereo not shown) [Example 2, N-methyl-2-[(2,6-xyloxy)methyl]-piperidine hydrochloride], for which the Lethal dose came out at 33 mg/kg.
For `CCCCN1CCCCC1COc1c(C)cccc1C` (stereo not shown) [Example 7, N-(n-butyl)-2-[(2,6-xyloxy)methyl]piperidine], the Lethal dose came out at 24 mg/kg.

Test system in the next data set: not listed separately
Description: in vivo. Particulars: mouse, sc.
`Cc1ccc(C)c(OCC2CCCCN2C)c1` (stereo not shown) [Example 9] displayed an LD50 of 400 mg/kg.
In turn, `CC1CCCC(C)C1OCC1CCCCN1C` (stereo not shown) [Example 4] gave an LD50 of 350 mg/kg.
`Cc1ccc(OCC2CCCCN2C)c(C)c1` (stereo not shown) [Example 8] came in with an LD50 of 400 mg/kg.
`Cc1cccc(C)c1OCC1CCCCN1C.Cl` (stereo not shown) [Example 2, N-methyl-2-[(2,6-xyloxy)methyl]-piperidine hydrochloride] came in with a 50% lethal dose (LD50) of 260 mg/kg.
Same read-out and setting: for `Cc1cccc(C)c1OCC1CCCCN1CCO` (stereo not shown) [Example 12] the value was 220 mg/kg.
`CCCCN1CCCCC1COc1c(C)cccc1C` (stereo not shown) [Example 7, N-(n-butyl)-2-[(2,6-xyloxy)methyl]piperidine] gave a median lethal dose (LD50) of 225 mg/kg.

The next data set has as its system ventricular arrhythmias. Description: Antiarrhythmic effects, ouabain-induced ventricular arrhythmias in anesthetized dogs. It is filed as in vivo. Particulars: i.v., 1 mg/kg. How it is done:
2. Antiarrhythmic effects.
Ventricular arrhythmias were induced in anesthetized dogs by intravenous injection of ouabain: initially 40 μg/kg bodyweight and thereafter 20 μg/kg bodyweight every 20 minutes until the ventricular arrhythmia was regarded as manifest. Lidocaine was also tested by the same procedure. The new compounds were compared with lidocaine, a known antiarrhythmic compound.
Molecule `CCN(CC)CC(=O)Nc1c(C)cccc1C` [Lidocaine, reference compound] displayed a Duration of regularization of 2 min.
`Cc1cccc(C)c1OCC1CCCCN1C.Cl` (stereo not shown) [Example 2, N-methyl-2-[(2,6-xyloxy)methyl]-piperidine hydrochloride] displayed a Duration of regularization of 2 min.
`CCCCN1CCCCC1COc1c(C)cccc1C` (stereo not shown) [Example 7, N-(n-butyl)-2-[(2,6-xyloxy)methyl]piperidine] came in with a Duration of regularization of 4 min.

The data set is the same for the next values; noted with them: i.v., 2 mg/kg.
Consider `CCN(CC)CC(=O)Nc1c(C)cccc1C` [Lidocaine, reference compound], for which the Duration of regularization was 4 min.
On to `Cc1cccc(C)c1OCC1CCCCN1C.Cl` (stereo not shown) [Example 2, N-methyl-2-[(2,6-xyloxy)methyl]-piperidine hydrochloride], for which the Duration of regularization amounted to 4 min.

Another data set deals with cynomolgus monkeys. Description: Spinal anesthetic effects in monkeys, intrathecal injection. It is filed as in vivo. Particulars: intrathecal 1.0 ml, 5.0% by wt. Here is the method: D. Spinal Anesthetic Effects.
Spinal anesthetsias were performed on cynomolgus monkeys that had been sedated with ketamine (6 mg/kg; i.m.). 1.0 ml of the test solutions were injected intrathecally and the durations were tested every ten (10) minutes with forceps. The duration of motoric blockade was calculated as the time until the hind leg paralysis ceased.
As to `CCN(CC)CC(=O)Nc1c(C)cccc1C` [Lidocaine, reference compound], the “Duration, Anal Blockade” value was found to be 150 min; the “Duration, Digital Blockade” value came out at 88 min; the “Duration, Motor Blockade” value was found to be 73 min.

A further data set relates to lingomandibular reflex. Description: Interneuronblocking effects, lingomandibular reflex in anesthetized cats. Particulars: Felis catus, iv, 0.25 mg/kg bodyweight, read-out: Maximal inhibition. Type of data set: in vivo, cats (female; 2.5-3.5 kg). Here is the method: 3. Interneuronblocking effects.
Tests were carried out in anesthetized cats (female; 2.5-3.5 kg bodyweight). The effects of the compounds were studied on the lingomandibular reflex, which was provoked by means of electrical stimulation of the tongue. The mandibular reflux was registered from a transducer connected to the mandible. Phenyramidole was tested by the same procedure. As evident from the results shown in Table 8, the compound according to Example 2 of the invention is 10 times as potent as phenyramidole.
For `Cc1cccc(C)c1OCC1CCCCN1C.Cl` (stereo not shown) [Example 2, N-methyl-2-[(2,6-xyloxy)methyl]-piperidine hydrochloride], the inhibition at 0.25 mg/kg was 30%.

The data set is the same for the next values; noted with them: Felis catus, iv, 0.50 mg/kg bodyweight, read-out: Maximal inhibition.
For the molecule `Cc1cccc(C)c1OCC1CCCCN1C.Cl` (stereo not shown) [Example 2, N-methyl-2-[(2,6-xyloxy)methyl]-piperidine hydrochloride], the inhibition at 0.5 mg/kg came to 80%.

The same data set, now with this note: Felis catus, iv, 1.00 mg/kg bodyweight, read-out: Maximal inhibition.
`Cc1cccc(C)c1OCC1CCCCN1C.Cl` (stereo not shown) [Example 2, N-methyl-2-[(2,6-xyloxy)methyl]-piperidine hydrochloride]: the inhibition at 1 mg/kg worked out at 100%.

Still in this data set, the particulars now being: i.v., 0.25 mg/kg bodyweight.
As for `Cc1cccc(C)c1OCC1CCCCN1C.Cl` (stereo not shown) [Example 2, N-methyl-2-[(2,6-xyloxy)methyl]-piperidine hydrochloride], the Duration of inhibition came out at 10 min.

The data set is the same for the next values; noted with them: i.v., 0.50 mg/kg bodyweight.
The molecule `Cc1cccc(C)c1OCC1CCCCN1C.Cl` (stereo not shown) [Example 2, N-methyl-2-[(2,6-xyloxy)methyl]-piperidine hydrochloride] returned a Duration of inhibition of 20 min.

The data set is the same for the next values; noted with them: i.v., 1.00 mg/kg bodyweight.
Turning to `Cc1cccc(C)c1OCC1CCCCN1C.Cl` (stereo not shown) [Example 2, N-methyl-2-[(2,6-xyloxy)methyl]-piperidine hydrochloride], the Duration of inhibition was determined as 45 min.

The same data set, now with this note: i.v., compared with phenyramidole.
As for `Cc1cccc(C)c1OCC1CCCCN1C.Cl` (stereo not shown) [Example 2, N-methyl-2-[(2,6-xyloxy)methyl]-piperidine hydrochloride], the “Potency relative to phenyramidole” value stood at 10 times.

The term LD50 denotes the dose at which mortality reaches 50%. Read a low LD50 as greater toxicity. Usually inhibition stands for the drop in the measured response relative to a control, in per cent.

The record behind these values is patent US4822778A, “Membrane stabilizing phenoxy-piperidine compounds and pharmaceutical compositions employing such compounds” (Aberg; Gunnar, priority 1988, dated 1989).
